Source: patent US20230064990A1, “DOSING REGIMENS AND METHODS FOR TREATING CANCER” (Panbela Therapeutics, Inc., priority 2020, published 2023)

Key:
[1] = Phase 1a/1b study in combination with G and A, safety; format: in vivo, human; conditions: N=20
Method: G (1000 mg/m^2) and A (125 mg/m^2) were administered intravenously on Days 1, 8, and 15 of each cycle. […] PK was evaluated on day 1 of cycle 1. Efficacy was assessed by CA19-9 levels, objective response was assessed by RECIST criteria, progression-free survival (PFS) and overall survival (OS).
This is a multicenter, open label, Phase 1a/1b study to evaluate to evaluate the safety, tolerability, pharmacokinetics and efficacy of (S,S)-(HO)2DEHSPM when administered in combination with G and A as first-line therapy in pancreatic cancer patients previously untreated for metastatic disease. The objective was to determine a recommended Phase 2 dose. Using a modified 3+3 dose escalation scheme, cohorts of subjects were dosed with subcutaneous injections of (S,S)-(HO)2DEHSPM at 0.2, 0.4 or 0.6 mg/kg days 1-5 of each 28-day cycle. Gemcitabine (1000 mg/m^2) and A (125 mg/m^2) were administered intravenously on Days 1, 8, and 15 of each cycle. […] PK was evaluated on day 1 of cycle 1. Efficacy was assessed by objective response rate (ORR) using RECIST criteria and by changes in CA19-9 levels. Subjects were treated until disease progression or the development of dose-limiting toxicity. Based upon initial safety findings and preliminary signals of efficacy, the protocol was amended to evaluate progression-free survival (PFS) and overall survival (OS) and expand the study to up to 36 subjects at the recommended Phase 2 dose. To date, 20 subjects were enrolled in cohorts 1-3 and evaluated for dose limiting toxicity and early signals of efficacy.

[2] = system: human L3.6pl pancreatic cancer cells; test: Orthotopic implantation of L3.6pl pancreatic cancer cells into nude mice; conditions: Study 3, GEM 100 mg/kg 2×/wk ip, (S,S)-(HO)2DEHSPM 25 mg/kg 3×/wk
Method: These studies examined the anti-neoplastic effects of subcutaneous administration of (S,S)-(HO)2DEHSPM following orthotopic implantation of human L3.6pl pancreatic cancer cells into the pancreas of nude mice.
L3.6pl cells were injected into the pancreas of nude mice; treatment was initiated by group (n=10/group planned) 7-10 days later following establishment of tumors:
Study 1: saline (control), (S,S)-(HO)2DEHSPM (25 mg/kg), (S,S)-(HO)2DEHSPM (50 mg/kg), and (S,S)-(HO)2DEHSPM (100 mg/kg) daily (QD) for 4 to 6 weeks (wks).
Study 2: saline (control), (S,S)-(HO)2DEHSPM (25 mg/kg QD), (S,S)-(HO)2DEHSPM (25 mg/kg 3×/wk), (S,S)-(HO)2DEHSPM (15 mg/kg 3×/wk), and (S,S)-(HO)2DEHSPM (5 mg/kg 3×/wk) for 4 to 6 wks.
Study 3: saline (control), gemcitabine (GEM) (100 mg/kg 2×/wk, intraperitoneally), (S,S)-(HO)2DEHSPM (25 mg/kg 3×/wk), and (S,S)-(HO)2DEHSPM+GEM for 4 to 6 wks.

[3] = system: PDA; conditions: pivotal trials; cited from earlier work

Compound	Grade ≥3 Elevated LFTs related to the named study medication (subjects) [1]	decreases in body weight ([2]; 4 to 6 wks)	decreases in pancreas weight ([2]; compared with controls)	decreases in tumor volume ([2]; compared with controls)	DCR, historical rate [3]	ORR, historical rate [3]
Nc1ccn([C@@H]2O[C@H](CO)[C@@H](O)C2(F)F)c(=O)n1 [GEM, gemcitabine, reference compound]	1 (G)	18.7%	24.7%	37.8%		
FOLFIRINOX					70%	32%
